Test results: US20110052570A1, “METHOD TO PROGNOSE RESPONSE TO ANTI-EGFR THERAPEUTICS” (CHILDREN'S MEDICAL CENTER CORPORATION, priority 2005, published 2011)
Entries after “also recorded” stand apart in the source; their conditions may differ. One block for each molecule: values may come before it.

Tests used:
[1] = tested on: A375SM tumor EC (melanoma EC); assay: MTT cell proliferation assay, tumor EC; assay type: cell-based, mouse
Protocol: (§1) Cell proliferation. Cells (4×103) were plated in triplicates into 96 well plates and allowed to adhere overnight. The cells were then switched to serum free media containing growth factors and/or AG1478 at indicated concentrations. Cells were cultured for 72 hr and cell proliferation was determined by addition of 0.42 mg/ml of 3-(4,5-dimethylthiazol-2-yl)-2,5-diphenyltetrazolium bromide (MTT) reagent (Sigma-Aldrich) for 4 hr prior to harvesting. Media was removed and cells were solubilized in DMSO and absorbance was measured at 570 nm. The averages of the triplicates were calculated and cell proliferation was determined as the percentage of absorbance of treated cells to the untreated cells. All the experiments were at least performed twice.

EGFR = target: T1, EGFR (Mus musculus, UniProt Q01279); assay: EGFR phosphorylation by immunoprecipitation / western blotting in endothelial cells; assay type: cell-based; settings: for ligand-induced EGFR phosphorylation / activation: serum starved A375SM tumor EC, ligand 100 ng/ml
T1 construct: endogenous in cells; host or cells: mouse tumour EC isolated from A375SM melanoma, MDA-MB-231 breast carcinoma and liposarcoma xenografts; mouse skin EC as control
Protocol: Immunoprecipitation (IP) and western blotting (WB). […] Cells were also treated with the EGFR kinase inhibitor, AG1478 (Calbiochem, San Diego, Calif.), prepared in DMSO, fifteen minutes prior to growth factor stimulation. Immunoprecipitation (IP) and western blotting (WB) were performed as previously described (16). […] Receptor phosphorylation was detected using anti-phosphotyrosine antibody (mAb 4G10; Upstate, Lake Placid, N.Y.). […] In addition antibodies to GAPDH (Chemicon, Temecula, Calif.), (β-Actin (Sigma-Aldrich, St Louis, Mo.), phospho-Erk1-2 (New England Biolab, Beverly Mass.), and Erk1 (Santa Cruz Biotechnology) were purchased.

[2] = tested on: A375SM melanoma xenograft; assay: A375SM melanoma xenograft model in nude mice; assay type: in vivo, mouse; settings: EGFR-negative A375SM xenografts in mice, daily treatment, 4 weeks
Protocol: A375SM melanoma tumor cells were injected subcutaneously into nude mice. When the tumors reached an average volume of 200 mm^3 the mice were randomized into a control and Iressa treatment groups. The mice were treated daily p.o. with gefitinib (150 mg/kg) or with the vehicle. Tumor volumes were measured every 4 days.

skin EC = assay: MTT cell proliferation assay, skin EC; assay type: cell-based, mouse; settings: increasing EGF
Protocol: as §1

ErbB2 = ErbB2 phosphorylation by immunoprecipitation / western blotting in endothelial cells; assay type: cell-based, mouse
Protocol: (§2) Immunoprecipitation (IP) and western blotting (WB). […] Cells were also treated with the EGFR kinase inhibitor, AG1478 (Calbiochem, San Diego, Calif.), prepared in DMSO, fifteen minutes prior to growth factor stimulation. Immunoprecipitation (IP) and western blotting (WB) were performed as previously described (16). The antibodies used for IP and WB of ErbB1-4 were: SC-03, SC-284, SC-285, and SC-283 respectively (Santa Cruz Biotechnology, Santa Cruz, Calif.). Receptor phosphorylation was detected using anti-phosphotyrosine antibody (mAb 4G10; Upstate, Lake Placid, N.Y.). Analysis of phosphorylated—EGFR on lysates was performed using phospho-1068 EGFR (Cell Signaling Technologies, Beverly Mass.). In addition antibodies to GAPDH (Chemicon, Temecula, Calif.), (β-Actin (Sigma-Aldrich, St Louis, Mo.), phospho-Erk1-2 (New England Biolab, Beverly Mass.), and Erk1 (Santa Cruz Biotechnology) were purchased.

Erk1/2 = Erk1/2 (MAPK) phosphorylation by western blotting in endothelial cells; assay type: cell-based, mouse
Protocol: as §2

[3] = target: ErbB3 on mouse skin endothelial cells (skin EC) (mouse) (UniProt Q61526); assay: cell-based or functional assay

- ligand-induced EGFR phosphorylation / activation (EGFR): promoted EGFR activation in tumor EC
Molecule: BTC: betacellulin, binds EGFR and ErbB4

- growth inhibition (MTT assay) of skin EC at 5 ng/ml (0.2 nM) NRG1β [3]: 25%
Molecule: NRG1β extra-cellular domain (R&D Systems) (ligand)

- ligand-induced EGFR phosphorylation / activation (EGFR): promoted EGFR activation in tumor EC
Molecule: TGFα: transforming growth factor-alpha, EGFR ligand

Continued, molecule first:

Molecule: COc1cc2ncnc(Nc3cccc(Cl)c3)c2cc1OC [AG1478, 4-(3-Chloroanillino)-6,7-dimethoxyquinazoline, reference compound]
- inhibition of EGF-induced increase in tumor EC cell proliferation ([1]; inhibitor at 1 μM, increasing EGF, MTT 72 hr): completely inhibit
- inhibition of EGF-induced tumor EC proliferation ([1]; tumor (melanoma) EC, concentration not stated / dose dependent): completely inhibits EGF dependent proliferation
- effect on EGF-induced phosphorylation of EGFR (EGFR; skin EC, inhibitor pretreatment, then EGF 100 ng/ml): had no effect on skin EC
- inhibition of EGF-induced phosphorylation of EGFR (EGFR; tumor EC (A375SM melanoma EC), inhibitor pretreatment, then EGF 100 ng/ml): inhibited EGF-induced phosphorylation of EGFR in tumor EC in a dose-dependent manner; also recorded: inhibits EGFR activation on melanoma EC

Molecule: COc1cc2ncnc(Nc3ccc(F)c(Cl)c3)c2cc1OCCCN1CCOCC1 [Iressa, Gefitinib]
- effect on tumor growth (in words) [2]: inhibits EGFR negative A375SM melanoma xenograph growth
- effect on tumor growth (in words) ([2]; listed as geftinib): effective against EGFR-negative tumors in mice

Molecule: EGF: epidermal growth factor, ligand that binds only to EGFR
- effect on cell proliferation (in words) (skin EC): did not respond to EGF
- increase in cell proliferation ([1]; tumor EC, 20 ng/ml of EGF, MTT): 2.5 fold
- effect on cell proliferation (in words) ([1]; tumor EC, increasing EGF, MTT): dose-dependent increase in cell proliferation
- EGF-induced ErbB2 phosphorylation (p-ErbB2) (ErbB2; A375SM tumor EC): increased ErbB2 phosphorylation (p-ErbB2) in tumor EC
- ErbB2 activation in response to EGF (ErbB2; MDA-MB-231 breast carcinoma EC): ErbB2 was also activated
- ErbB2 activation in response to EGF (ErbB2; liposarcoma EC): ErbB2 was also activated
- phospho-Erk1/2 levels in the presence of EGF (Erk1/2; A375SM tumor EC): increase in phospho-Erk1/2 levels
- MAPK activation by EGF (Erk1/2; MDA-MB-231 breast carcinoma EC): subsequent MAPK activation
- MAPK activation by EGF (Erk1/2; liposarcoma EC): subsequent MAPK activation

Molecule: HB-EGF: Heparin binding-EGF like growth factor, binds EGFR and ErbB4
- ligand-induced EGFR phosphorylation / activation (EGFR): promoted EGFR activation in tumor EC
